Data on 26 compounds can be found in patent US20250129104A1, “7H-PYRROLO[2,3-D]PYRIMIDINES AND PREPARATION AND USES THEREOF” (BioSplice Therapeutics, Inc., priority 2021, published 2025).

Assay [1] deals with recombinant DYRK1A kinase (Homo sapiens (Human), UniProt Q13627). The assay can be described thus: DYRK1A kinase assay (Ser/Thr 18 peptide Z-lyte FRET assay). It is filed as biochemical. The settings on record: DYRK1A kinase activity; 15 μM ATP, 1 h room temperature; method text calls the value IC50. A digest of the protocol:
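Recombinant human DYRK1A (0.25 μg/mL) with 15 μM ATP and 4 μM Ser/Thr 18 peptide, 1 h at room temperature with compound (11-point, 1:3, 10 μM top, duplicate). Z-lyte development 1 h, then coumarin/fluorescein FRET emission ratio converted to % phosphorylation; IC50 by non-linear regression.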

Assay [2] concerns Tau phosphorylation at Thr212 (pThr212). As to the kind of experiment: tau phosphorylation assay: phosphoTau (Thr212) AlphaLISA in HEK293T cells transfected with DYRK1A and MAPT. It is filed as cell-based. The note with it: HEK-293T; HEK293T cells transfected with human DYRK1A and MAPT; 18-24 h compound treatment; read-out: pTau (Thr212) EC50. The method, then:
Representative compounds were screened using the assay procedure for tau phosphorylation activity described below.
HEK293T cells (ATCC, CRL3216) cultured in DMEM (Thermo Fisher Scientific, 10566024) supplemented with 10% FBS (Corning, 35-011-CV) and Penicillin/Streptomycin (Thermo Fisher Scientific, 15140163) were seeded in a 75 cm^2 flask at 8.1×10^6 cells/flask. The HEK293T cells were then transiently transfected with 5 μg DYRK1A (NM_001396) human untagged clone (OriGene, SC314641) and 2.5 μg MAPT (441 a.a. Tau gene) (NM_005910) human untagged clone (OriGene, TP313312) using Lipofectamine 3000 (Thermo Fisher Scientific, L30000015) and incubated for 20-30 hours in a humidified incubator at 37° C. and 5% CO2. Post-incubation, HEK293T cells transfected with the DYRK1A and MAPT expression vectors were harvested and seeded in BioCoat poly-D lysine coated 96-well plates (Corning, 354461) at 3×10^4 cells/well.
The above synthesized compounds were screened using the cell assay procedure to assess decreased Tau phosphorylation at Thr212 (pThr212) described below.
Each compound was dissolved in DMSO (Sigma-Aldrich, D8418-100 mL) as a 10 mM stock. 10 mM stocks were serially diluted 1:3, 10-point dose-response curve and added to the cells with a final concentration ranging from 20 μM to 1.1 nM. Cell were treated with compounds in duplicate and incubated for 18-24 hours in a humidified incubator at 37° C. and 5% CO2.
Following the overnight compound treatment, cells were lysed with 1× Alpha Surefire Ultra Lysis Buffer (Perkin Elmer, ALSU-LB-100ML) complemented with 1× Halt Phosphatase Inhibitor Cocktail (Thermo Fisher Scientific, 78427) and 1× Halt Protease Inhibitor Cocktail (Thermo Fisher Scientific, 78438). Lysates were spun down at 12,000 g for 10 min to remove any cellular debris and 5 μL of lysates were dispensed into a 384-well Opti-Plate (Perkin Elmer, 6007290) for the measurement of Tau phosphorylation in the phosphoTau (Thr212) AlphaLISA assay. Donor antibody, biotinylated HT7Tau (Thermo Fisher Scientific, MN1000B), and acceptor antibody, pThr212Tau (Thermo Fisher Scientific, 44740G) were both added to the cell lysates at a final concentration of 3 nM and incubated for 1 hour at room temperature. Following incubation of the lysates with the donor and acceptor antibodies, anti-rabbit IgG (Fc specific) AlphaLISA acceptor beads (Perkin Elmer, AL104C) were added at a 10 μg/mL final concentration and incubated for 1 hour at room temperature protected from light. Lastly, AlphaScreen streptavidin donor beads (PerkinElmer, 6760002) were added at 40 μg/mL final concentration and incubated for 1 hour at room temperature protected from light. Plates were read at […], and Em=615 nm on the EnVision Multilabel Plate Reader (Perkin Elmer). PhosphoTau (Thr212) AlphaLISA signal was used to plot, draw the curve fitting, and determine each compound's EC50 in Prism (GraphPad).
For orientation: In Alpha technology, singlet oxygen from a donor bead excites a nearby acceptor bead.

As for `Cc1nc2ccc(-c3c[nH]c4nc(NCC(C)(C)F)ncc34)cc2s1` [Compound 24, N-(2-Fluoro-2-methylpropyl)-5-(2-methylbenzo[d]thiazol-6-yl)-7H-pyrrolo [2,3-d]pyrimidin-2-amine], the concentration for a half-maximal effect (EC50) (commonly the concentration at which the effect is half-maximal) came to 14.5 nM in assay [1] and 360 nM in assay [2].
In the case of `CN1CCC(Nc2ncc3c(-c4cc5cnccc5s4)c[nH]c3n2)CC1` [Compound 87, N-(1-Methylpiperidin-4-yl)-5-(thieno[3,2-c]pyridin-2-yl)-7H-pyrrolo[2,3-d]pyrimidin-2-amine], the concentration for a half-maximal effect (EC50) amounted to 6.8 nM in assay [1] and 107 nM in assay [2].
On the same counts, the results for `c1cn2cc(-c3c[nH]c4nc(C5CCC5)ncc34)ccc2n1` [Compound 103, 2-cyclobutyl-5-(imidazo[1,2-a]pyridin-6-yl)-7H-pyrrolo[2,3-d]pyrimidine] are 21.9 nM and 4500 nM.
On the same counts, the results for `CC(C)(C)CNc1ncc2c(-c3ccc4nccn4c3)c[nH]c2n1` [Compound 110, 5-(Imidazo[1,2-a]pyridin-6-yl)-N-neopentyl-7H-pyrrolo[2,3-d]pyrimidin-2-amine] are 36 nM and 22 nM.
In the same order, the values of `CC(C)(F)CNc1ncc2c(-c3ccc4nccn4c3)c[nH]c2n1` [Compound 112, N-(2-Fluoro-2-methylpropyl)-5-(imidazo[1,2-a]pyridin-6-yl)-7H-pyrrolo[2,3-d]pyrimidin-2-amine] are 2.8 nM and 113 nM.
Turning to `C[C@@H](Nc1ncc2c(-c3ccc4nccn4c3)c[nH]c2n1)C(F)(F)F` [Compound 115, (R)-5-(Imidazo[1,2-a]pyridin-6-yl)-N-(1,1,1-trifluoropropan-2-yl)-7H-pyrrolo [2,3-d]pyrimidin-2-amine], the EC50 in assay [1] came out at 3.1 nM; in assay [2], 30 nM.
As for `C[C@H](Nc1ncc2c(-c3ccc4nccn4c3)c[nH]c2n1)C(F)(F)F` [Compound 116, (S)-5-(Imidazo[1,2-a]pyridin-6-yl)-N-(1,1,1-trifluoropropan-2-yl)-7H-pyrrolo [2,3-d]pyrimidin-2-amine], the figures for the 50% effective concentration (EC50) in assay [1] and in assay [2] were 9.6 nM and 117 nM, respectively.
On to `COc1nc(N[C@H]2CC[C@H](OC)CC2)nc2[nH]cc(-c3ccn4nccc4c3)c12` [Compound 3310, 4-Methoxy-N-(trans-4-methoxycyclohexyl)-5-(pyrazolo[1,5-a]pyridin-5-yl)-7H-pyrrolo[2,3-d]pyrimidin-2-amine], for which, in assay [1], the concentration for a half-maximal effect (EC50) stood at 230 nM.
Regarding `[2H]C([2H])([2H])Oc1nc(N[C@H]2CC[C@@H](OC)CC2)nc2[nH]cc(-c3ccn4nccc4c3)c12` [Compound 3311, 4-(Methoxy-d3)—N-(cis-4-methoxycyclohexyl)-5-(pyrazolo[1,5-a]pyridin-5-yl)-7H-pyrrolo[2,3-d]pyrimidin-2-amine], the EC50 in assay [1] turned out to be 1.4 nM.
On the same count and under the same terms, with `COc1nc(NC2CC3(COC3)C2)nc2[nH]cc(-c3ccn4nccc4c3)c12` [Compound 3321, 4-Methoxy-5-(pyrazolo[1,5-a]pyridin-5-yl)-N-(2-oxaspiro[3.3]heptan-6-yl)-7H-pyrrolo[2,3-d]pyrimidin-2-amine] the figure was 37.5 nM.
As to `COc1nc(NC2CCC3(CC2)COC3)nc2[nH]cc(-c3ccn4nccc4c3)c12` [Compound 3326, 4-Methoxy-5-(pyrazolo[1,5-a]pyridin-5-yl)-N-(2-oxaspiro[3.5]nonan-7-yl)-7H-pyrrolo[2,3-d]pyrimidin-2-amine], the concentration for a half-maximal effect (EC50) in assay [1] is 1.6 nM.
Same read-out and setting: to `COc1nc(N[C@H]2CC[C@@H](OC)CC2)nc2[nH]cc(-c3ccn4ncnc4c3)c12` [Compound 3384, 5-([1,2,4]Triazolo[1,5-a]pyridin-7-yl)-4-methoxy-N-(cis-4-methoxycyclohexyl)-7H-pyrrolo[2,3-d]pyrimidin-2-amine] belongs 1.2 nM; to `CO[C@H]1CC[C@H](Nc2ncc3c(-c4ccn5nccc5n4)c[nH]c3n2)CC1` [Compound 3420, N-(trans-4-Methoxycyclohexyl)-5-(pyrazolo[1,5-a]pyrimidin-5-yl)-7H-pyrrolo[2,3-d]pyrimidin-2-amine], 5.6 nM.
Same read-out and setting: with `FC(F)O[C@H]1CC[C@H](Nc2ncc3c(-c4ccn5nccc5n4)c[nH]c3n2)CC1` [Compound 3421, N-(trans-4-(difluoromethoxy)cyclohexyl)-5-(pyrazolo[1,5-a]pyrimidin-5-yl)-7H-pyrrolo[2,3-d]pyrimidin-2-amine] the figure was 28.1 nM; with `C[C@]1(O)CC[C@@H](Nc2ncc3c(-c4ccn5nccc5n4)c[nH]c3n2)CC1` [Compound 3426, (1s,4s)-1-Methyl-4-((5-(pyrazolo[1,5-a]pyrimidin-5-yl)-7H-pyrrolo[2,3-d]pyrimidin-2-yl)amino)cyclohexan-1-ol], 3.2 nM; with `c1cc2nc(-c3c[nH]c4nc(NC5CCC6(CC5)COC6)ncc34)ccn2n1` [Compound 3435, 5-(Pyrazolo[1,5-a]pyrimidin-5-yl)-N-(2-oxaspiro[3.5]nonan-7-yl)-7H-pyrrolo[2,3-d]pyrimidin-2-amine], 2.3 nM.
Same read-out and setting: to `CNc1nc(N[C@H]2CC[C@](C)(O)CC2)nc2[nH]cc(-c3ccn4nccc4n3)c12` [Compound 3454, trans-1-methyl-4-((4-(methylamino)-5-(pyrazolo[1,5-a]pyrimidin-5-yl)-7H-pyrrolo[2,3-d]pyrimidin-2-yl)amino)cyclohexan-1-ol] belongs 3.4 nM; to `CNc1nc(N2CC3(CO)CCC2CC3)nc2[nH]cc(-c3ccn4nccc4n3)c12` [Compound 3459, (2-(4-(methylamino)-5-(pyrazolo[1,5-a]pyrimidin-5-yl)-7H-pyrrolo[2,3-d]pyrimidin-2-yl)-2-azabicyclo[2.2.2]octan-4-yl)methanol], 210 nM.
With `CNc1nc(NC2CCC3(CC2)COC3)nc2[nH]cc(-c3ccn4nccc4n3)c12` [Compound 3461, N^4-Methyl-5-(pyrazolo[1,5-a]pyrimidin-5-yl)-N^2-(2-oxaspiro[3.5]nonan-7-yl)-7H-pyrrolo[2,3-d]pyrimidine-2,4-diamine], the half-maximal effective concentration (EC50) in assay [1] was found to be 1.9 nM.
Regarding `COc1nc(N[C@H]2CC[C@@H](OC)CC2)nc2[nH]cc(-c3ccc4nccnc4c3)c12` [Compound 3575, 4-Methoxy-N-(cis-4-methoxycyclohexyl)-5-(quinoxalin-6-yl)-7H-pyrrolo[2,3-d]pyrimidin-2-amine], the EC50 in assay [1] was found to be 0.7 nM.
For the compound `COc1nc(NC2CCC3(CC2)COC3)nc2[nH]cc(-c3ccc4nccnc4c3)c12` [Compound 3590, 4-Methoxy-5-(quinoxalin-6-yl)-N-(2-oxaspiro[3.5]nonan-7-yl)-7H-pyrrolo[2,3-d]pyrimidin-2-amine], the EC50 in assay [1] was found to be 1.6 nM.
The same measure, in the same setting: to `Cn1nnc2ccc(-c3c[nH]c4nc(N[C@H]5CC[C@@](C)(O)CC5)ncc34)cc21` [Compound 3643, (1s,4s)-1-Methyl-4-((5-(1-methyl-1H-benzo[d][1,2,3]triazol-6-yl)-7H-pyrrolo[2,3-d]pyrimidin-2-yl)amino)cyclohexan-1-ol] belongs 0.7 nM; to “N-(4,4-Difluorocyclohexyl)-4-methoxy-5-(pyrazolo[1,5-a]pyrimidin-5-yl)-7H-pyrrolo[2,3-d]pyrimidin-2-amine [Compound 2223]”, 9.4 nM.
Consider “N-(cis-3-Methoxycyclobutyl)-5-(1-methyl-1H-benzo[d][1,2,3]triazol-6-yl)-7H-pyrrolo[2,3-d]pyrimidin-2-amine [Compound 2051]”, for which the concentration for a half-maximal effect (EC50) in assay [1] was found to be 7.8 nM.
The same measure, in the same setting: with “N-(cis-4-(Methoxy-d3)cyclohexyl)-5-(pyrazolo[1,5-a]pyrimidin-5-yl)-7H-pyrrolo[2,3-d]pyrimidin-2-amine [Compound 2221]” the figure was 3.6 nM; with “cis-4-((4-Ethoxy-5-(pyrazolo[1,5-a]pyrimidin-5-yl)-7H-pyrrolo[2,3-d]pyrimidin-2-yl)amino)cyclohexan-1-ol [Compound 2225]”, 15.4 nM.
